ChEMBL document CHEMBL6092131, “Synthesis, SAR, and application of JQ1 analogs as PROTACs for cancer therapy” (Bioorg Med Chem, 2024)

Columns and labels:
BT-549 = test: Antiproliferative activity against human BT-549 cells assessed as reduction in cell viability; assay type: functional, cell-based
cells = settings: Homo sapiens, Triple-negative breast cancer cell
Description: Antiproliferative activity against human Triple-negative breast cancer cell

[1] = target: Protein cereblon/CREB-binding protein (Homo sapiens, UniProt Q92793+Q96SW2); test: PROTAC activity at CBP/CRBN in human VCaP cells assessed as protein degradation incubated for 24 hrs by Western blot analysis; assay type: cell-based
[2] = target: Bromodomain-containing protein 4 (Homo sapiens, UniProt O60885); test: Binding affinity to BRD4 BD2 (unknown origin) assessed as dissociation constant by SPR assay
[3] = Cytotoxicity against human HAP1 cells assessed as reduction in cell viability measured for 24 hrs by SRB assay; assay type: functional, cell-based; settings: HAP1, 24 h
MDA-MB-231 = test: Antiproliferative activity against human MDA-MB-231 cells assessed as reduction in cell viability incubated for 72 hrs by MTT assay; assay type: functional, cell-based; settings: MDA-MB-231, 72 h
[4] = target: von Hippel-Lindau disease tumor suppressor/Bromodomain-containing protein 4 (Homo sapiens, UniProt O60885+P40337); test: PROTAC activity at VHL/BRD4 in human HeLa cells assessed as protein degradation of BRD4 incubated for 24 hrs by Western blot analysis; assay type: cell-based
MV4-11 = test: Cytotoxicity against human MV4-11 cells assessed as reduction in cell viability incubated for 72 hrs by cell titer glo assay; assay type: functional, cell-based; settings: MV4-11, 72 h
[5] = target: T1, Protein cereblon/Bromodomain-containing protein 4 (Homo sapiens, UniProt O60885+Q96SW2); test: PROTAC activity at CRBN/BRD4 in human CA46 cells assessed as protein degradation incubated for 6 hrs by Western blot analysis; assay type: cell-based
[6] = target: T1, Protein cereblon/Bromodomain-containing protein 4; test: PROTAC activity at CRBN/BRD4 in human NAMALVA cells assessed as protein degradation incubated for 6 hrs by Western blot analysis; assay type: cell-based
LNCaP = test: Antiproliferative activity against human LNCaP cells assessed as inhibition of cell viability incubated for 48 hrs by CellTiter-Glo assay; assay type: functional, cell-based

T1 sequence (Q96SW2 whole entry, looked up, other chains not shown): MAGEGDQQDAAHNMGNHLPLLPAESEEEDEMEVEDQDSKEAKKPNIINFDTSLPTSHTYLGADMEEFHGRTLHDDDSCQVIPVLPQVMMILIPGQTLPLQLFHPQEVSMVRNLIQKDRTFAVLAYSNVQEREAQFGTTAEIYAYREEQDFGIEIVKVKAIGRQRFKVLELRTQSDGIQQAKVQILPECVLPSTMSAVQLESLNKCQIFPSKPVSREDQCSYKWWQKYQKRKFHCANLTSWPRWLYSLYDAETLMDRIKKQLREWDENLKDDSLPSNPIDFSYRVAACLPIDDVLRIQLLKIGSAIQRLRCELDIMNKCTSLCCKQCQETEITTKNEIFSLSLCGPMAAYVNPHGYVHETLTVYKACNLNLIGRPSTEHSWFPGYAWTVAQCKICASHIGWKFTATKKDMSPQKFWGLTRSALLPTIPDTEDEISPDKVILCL
Chain of Protein cereblon/CREB-binding protein (Q92793 whole entry): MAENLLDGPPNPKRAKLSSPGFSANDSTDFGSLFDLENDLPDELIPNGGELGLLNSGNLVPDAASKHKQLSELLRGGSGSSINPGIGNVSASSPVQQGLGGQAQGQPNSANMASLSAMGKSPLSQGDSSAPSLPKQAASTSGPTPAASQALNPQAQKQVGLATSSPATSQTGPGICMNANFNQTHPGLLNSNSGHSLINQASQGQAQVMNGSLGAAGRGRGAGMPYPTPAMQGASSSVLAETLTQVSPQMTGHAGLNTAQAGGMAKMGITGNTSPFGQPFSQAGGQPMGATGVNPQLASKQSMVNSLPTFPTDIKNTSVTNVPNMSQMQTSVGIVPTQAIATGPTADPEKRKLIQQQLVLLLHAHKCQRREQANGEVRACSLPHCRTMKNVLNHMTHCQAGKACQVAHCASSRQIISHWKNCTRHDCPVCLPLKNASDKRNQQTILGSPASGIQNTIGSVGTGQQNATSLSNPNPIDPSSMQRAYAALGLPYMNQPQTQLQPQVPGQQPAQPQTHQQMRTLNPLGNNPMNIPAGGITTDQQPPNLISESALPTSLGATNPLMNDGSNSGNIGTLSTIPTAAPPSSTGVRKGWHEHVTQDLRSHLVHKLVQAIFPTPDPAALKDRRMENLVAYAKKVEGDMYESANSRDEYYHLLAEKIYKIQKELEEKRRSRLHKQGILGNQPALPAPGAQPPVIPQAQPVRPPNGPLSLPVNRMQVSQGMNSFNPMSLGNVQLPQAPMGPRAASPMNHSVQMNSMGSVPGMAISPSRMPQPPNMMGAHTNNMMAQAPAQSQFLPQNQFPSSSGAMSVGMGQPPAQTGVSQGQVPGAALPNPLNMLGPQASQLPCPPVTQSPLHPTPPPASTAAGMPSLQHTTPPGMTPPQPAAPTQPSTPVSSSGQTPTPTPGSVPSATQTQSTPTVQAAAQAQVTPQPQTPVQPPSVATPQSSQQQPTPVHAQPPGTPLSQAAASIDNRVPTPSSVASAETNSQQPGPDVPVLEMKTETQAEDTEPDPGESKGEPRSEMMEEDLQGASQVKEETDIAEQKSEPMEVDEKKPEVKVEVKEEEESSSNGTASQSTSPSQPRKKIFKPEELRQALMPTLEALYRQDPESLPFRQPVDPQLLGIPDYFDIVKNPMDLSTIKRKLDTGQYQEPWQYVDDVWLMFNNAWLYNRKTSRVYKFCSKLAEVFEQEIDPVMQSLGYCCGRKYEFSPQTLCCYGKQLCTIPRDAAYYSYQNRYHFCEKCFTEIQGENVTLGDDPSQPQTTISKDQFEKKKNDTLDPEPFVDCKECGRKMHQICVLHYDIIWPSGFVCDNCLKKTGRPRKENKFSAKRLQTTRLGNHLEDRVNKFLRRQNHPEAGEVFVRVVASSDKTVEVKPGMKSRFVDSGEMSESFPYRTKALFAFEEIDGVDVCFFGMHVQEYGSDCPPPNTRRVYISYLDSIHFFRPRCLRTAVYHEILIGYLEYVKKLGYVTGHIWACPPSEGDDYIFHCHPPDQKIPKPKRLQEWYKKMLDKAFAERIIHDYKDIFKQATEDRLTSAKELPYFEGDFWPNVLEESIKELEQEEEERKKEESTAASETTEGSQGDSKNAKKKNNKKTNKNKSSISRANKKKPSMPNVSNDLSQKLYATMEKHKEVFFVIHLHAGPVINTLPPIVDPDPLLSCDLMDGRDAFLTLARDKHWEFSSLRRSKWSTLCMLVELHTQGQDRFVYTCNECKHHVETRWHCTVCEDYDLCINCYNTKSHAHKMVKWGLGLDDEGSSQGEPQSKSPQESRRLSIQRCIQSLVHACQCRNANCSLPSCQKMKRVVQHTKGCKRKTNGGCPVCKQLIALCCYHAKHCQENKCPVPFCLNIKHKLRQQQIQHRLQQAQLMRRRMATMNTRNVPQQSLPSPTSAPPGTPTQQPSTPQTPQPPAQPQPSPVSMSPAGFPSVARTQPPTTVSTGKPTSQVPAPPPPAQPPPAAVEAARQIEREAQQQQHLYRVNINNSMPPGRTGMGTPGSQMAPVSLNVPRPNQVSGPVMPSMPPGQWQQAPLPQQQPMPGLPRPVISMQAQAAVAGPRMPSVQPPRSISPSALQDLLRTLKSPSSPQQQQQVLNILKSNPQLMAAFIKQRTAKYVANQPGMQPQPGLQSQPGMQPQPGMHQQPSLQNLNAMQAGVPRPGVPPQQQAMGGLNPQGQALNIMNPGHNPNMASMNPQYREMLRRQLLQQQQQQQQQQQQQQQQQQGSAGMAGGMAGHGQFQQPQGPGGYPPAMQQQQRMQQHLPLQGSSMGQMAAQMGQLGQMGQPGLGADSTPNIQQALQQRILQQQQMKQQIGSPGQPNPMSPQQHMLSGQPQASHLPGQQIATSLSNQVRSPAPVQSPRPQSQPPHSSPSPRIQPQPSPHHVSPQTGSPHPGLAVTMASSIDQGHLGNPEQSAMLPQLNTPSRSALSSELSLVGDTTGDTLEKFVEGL
Chain of Protein cereblon/CREB-binding protein (Q96SW2 whole entry): as the sequence (Q96SW2 whole entry, looked up, other chains not shown) above
Chain of von Hippel-Lindau disease tumor suppressor/Bromodomain-containing protein 4 (P40337 whole entry, looked up, other chains not shown): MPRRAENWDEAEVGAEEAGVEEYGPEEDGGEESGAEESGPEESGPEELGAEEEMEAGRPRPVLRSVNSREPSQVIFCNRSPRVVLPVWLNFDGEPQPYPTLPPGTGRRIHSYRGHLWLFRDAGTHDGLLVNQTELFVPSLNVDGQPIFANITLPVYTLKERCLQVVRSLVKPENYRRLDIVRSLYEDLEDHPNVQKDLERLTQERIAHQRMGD

## Cc1sc2c(c1C)C(c1ccc(Cl)cc1)=N[C@@H](CC(=O)OC(C)(C)C)c1nnc(C)n1-2
BT-549
  IC50: 5200 nM
cells
  IC50: 9900 nM

## Cc1ncsc1-c1ccc([C@H](C)NC(=O)[C@@H]2C[C@@H](O)CN2C(=O)[C@@H](NC(=O)COCCCOCCNC(=O)C[C@@H]2N=C(c3ccc(Cl)cc3)c3c(sc(C)c3C)-n3c(C)nnc32)C(C)(C)C)cc1
[1]
  DC50: 5 nM

## CC(=O)N[C@H](C(=O)N1C[C@H](O)C[C@H]1C(=O)NCc1ccc(-c2scnc2C)cc1)C(C)(C)SCCCCCCNC(=O)C[C@@H]1N=C(c2ccc(Cl)cc2)c2c(sc(C)c2C)-n2c(C)nnc21
[2]
  Kd: 4.4 nM

## Cc1sc2c(c1C)C(c1ccc(Cl)cc1)=N[C@@H](CC(=O)NCCCCOc1ccc(C3CC(c4ccc(Br)cc4)=NN3C(=O)CCl)cc1)c1nnc(C)n1-2 (stereo partly specified)
[3]
  IC50: 470 nM

## Cc1sc2c(c1C)C(c1ccc(Cl)cc1)=N[C@@H](CC(=O)NCCCCOc1ccc(Oc3ccc(N(Cc4ccccc4)C(=O)CCl)cc3)cc1)c1nnc(C)n1-2
MDA-MB-231
  IC50: 540 nM

## Cc1ncsc1-c1ccc2c(c1)OCCOCCOC[C@@H](NC(=O)C[C@@H]1N=C(c3ccc(Cl)cc3)c3c(sc(C)c3C)-n3c(C)nnc31)COCCOCCOCC(=O)N[C@@H](C(C)(C)C)C(=O)N1C[C@H](O)C[C@H]1C(=O)NC2
[4]
  DC50: 640 nM
MV4-11
  IC50: 300 nM

## Cc1sc2c(c1C)C(c1ccc(Cl)cc1)=N[C@@H](CC(=O)Nc1ccc(OCCOCCOCCOCCCc3cccc4c3C(=O)N(C3CCC(=O)NC3=O)C4=O)cc1)c1nnc(C)n1-2 (stereo partly specified)
[5]
  DC50: < 1 nM
[6]
  DC50: < 1 nM

## CN[C@@H](C)C(=O)N[C@H](C(=O)N1CCC[C@H]1c1nc(C(=O)c2cccc(OCCOCCOCCOCCNC(=O)C[C@@H]3N=C(c4ccc(Cl)cc4)c4c(sc(C)c4C)-n4c(C)nnc43)c2)cs1)C1CCCCC1
LNCaP
  IC50: 77 nM
